Measured values published in PMC2999880 (Neuropharmacology, 2009).
Read-outs that look alike come from different tables or passages of the source.

Assays:
[1] = target: rat α7 NNRs (Rattus norvegicus, UniProt Q05941); experiment: ACh-evoked currents; type: cell-based; settings: for pseudo-Hill slope (nH): variable slope sigmoid fit of inhibition of 60 μM ACh-evoked currents
[2] = target: recombinant α4β2 NNRs expressed in SH-EP1 cells (Homo sapiens, UniProt P17787+P43681); experiment: [3H]-nicotine binding to recombinant α4β2 NNRs in SH-EP1 cell membranes; settings: 5 nM [3H]-nicotine, test compound up to 100 μM
Sequence of recombinant α4β2 NNRs expressed in SH-EP1 cells (P43681 29-627 limits assumed): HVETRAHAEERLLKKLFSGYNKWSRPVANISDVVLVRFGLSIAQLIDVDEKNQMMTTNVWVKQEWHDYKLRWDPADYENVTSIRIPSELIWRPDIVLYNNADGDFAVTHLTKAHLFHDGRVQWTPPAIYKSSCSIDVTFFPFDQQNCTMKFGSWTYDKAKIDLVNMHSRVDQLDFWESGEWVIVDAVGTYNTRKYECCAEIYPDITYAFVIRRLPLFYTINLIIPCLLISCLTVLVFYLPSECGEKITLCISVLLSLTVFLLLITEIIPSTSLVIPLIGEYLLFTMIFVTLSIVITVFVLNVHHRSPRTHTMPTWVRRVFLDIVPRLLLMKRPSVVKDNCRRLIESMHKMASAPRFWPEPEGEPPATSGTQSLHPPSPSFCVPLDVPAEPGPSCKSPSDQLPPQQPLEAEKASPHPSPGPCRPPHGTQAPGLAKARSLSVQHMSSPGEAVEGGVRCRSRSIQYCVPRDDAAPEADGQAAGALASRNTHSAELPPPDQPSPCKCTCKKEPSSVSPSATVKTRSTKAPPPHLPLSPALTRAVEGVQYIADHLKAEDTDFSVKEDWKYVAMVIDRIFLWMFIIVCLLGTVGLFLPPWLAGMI
Sequence of recombinant α4β2 NNRs expressed in SH-EP1 cells (P17787 26-502): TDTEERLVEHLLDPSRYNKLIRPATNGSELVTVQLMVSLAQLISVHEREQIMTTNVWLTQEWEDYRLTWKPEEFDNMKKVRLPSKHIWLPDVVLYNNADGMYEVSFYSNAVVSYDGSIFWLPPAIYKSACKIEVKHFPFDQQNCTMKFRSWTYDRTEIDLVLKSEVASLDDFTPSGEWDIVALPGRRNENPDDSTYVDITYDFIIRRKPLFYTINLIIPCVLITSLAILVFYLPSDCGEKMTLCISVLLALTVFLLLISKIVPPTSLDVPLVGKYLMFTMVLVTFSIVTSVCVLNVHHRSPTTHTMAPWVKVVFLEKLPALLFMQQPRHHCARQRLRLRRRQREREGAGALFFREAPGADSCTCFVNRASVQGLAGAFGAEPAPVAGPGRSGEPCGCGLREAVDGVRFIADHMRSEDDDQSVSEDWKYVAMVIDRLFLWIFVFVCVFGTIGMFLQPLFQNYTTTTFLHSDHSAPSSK

[3] = target: α7 NNR binding sites in rat hippocampal preparations (Rattus norvegicus, UniProt Q05941); experiment: [3H]-methyllycaconitine competition binding to rat hippocampal membranes; settings: 5 nM [3H]-methyllycaconitine, test compound up to 100 μM
Sequence of α7 NNR binding sites in rat hippocampal preparations (Q05941 23-502): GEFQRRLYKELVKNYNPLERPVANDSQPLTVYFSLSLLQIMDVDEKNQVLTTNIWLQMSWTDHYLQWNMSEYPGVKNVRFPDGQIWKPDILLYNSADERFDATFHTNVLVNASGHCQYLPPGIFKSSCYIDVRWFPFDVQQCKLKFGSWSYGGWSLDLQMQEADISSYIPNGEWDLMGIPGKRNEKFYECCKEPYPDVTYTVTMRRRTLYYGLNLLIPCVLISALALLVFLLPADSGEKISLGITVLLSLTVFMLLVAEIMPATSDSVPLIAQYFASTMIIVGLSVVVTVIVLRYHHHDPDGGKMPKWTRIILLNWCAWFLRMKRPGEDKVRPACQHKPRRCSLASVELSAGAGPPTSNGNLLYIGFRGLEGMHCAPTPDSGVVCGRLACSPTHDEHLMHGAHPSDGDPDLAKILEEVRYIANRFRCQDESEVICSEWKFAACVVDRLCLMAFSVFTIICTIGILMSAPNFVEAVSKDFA

[4] = target: presynaptic naturally-expressed α4β2-containing nicotinic receptors (Rattus norvegicus, UniProt P09483+P12390); experiment: Nicotine-evoked [3H]-dopamine release from rat striatal synaptosomes; type: biochemical; settings: read-out: DA Release IC50, 10 μM nicotine-evoked [3H]-dopamine release, mean (95% CI)
Sequence of presynaptic naturally-expressed α4β2-containing nicotinic receptors (P09483 31-630): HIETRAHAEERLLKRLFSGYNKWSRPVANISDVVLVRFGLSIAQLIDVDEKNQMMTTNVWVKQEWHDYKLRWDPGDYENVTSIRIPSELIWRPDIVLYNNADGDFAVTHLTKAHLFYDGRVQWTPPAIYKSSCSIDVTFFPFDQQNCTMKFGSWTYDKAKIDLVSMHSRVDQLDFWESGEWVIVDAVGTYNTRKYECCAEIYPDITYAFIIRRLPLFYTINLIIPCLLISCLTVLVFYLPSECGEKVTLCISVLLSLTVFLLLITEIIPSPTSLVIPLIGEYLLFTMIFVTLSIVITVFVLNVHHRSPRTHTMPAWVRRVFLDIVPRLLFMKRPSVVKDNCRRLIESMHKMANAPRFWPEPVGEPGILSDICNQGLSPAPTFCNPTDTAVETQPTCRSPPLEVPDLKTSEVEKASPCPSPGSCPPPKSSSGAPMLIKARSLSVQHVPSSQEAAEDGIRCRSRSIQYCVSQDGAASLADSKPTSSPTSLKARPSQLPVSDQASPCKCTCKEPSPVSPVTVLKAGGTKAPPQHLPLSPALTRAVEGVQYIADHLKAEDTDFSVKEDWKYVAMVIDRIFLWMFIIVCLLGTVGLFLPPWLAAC
Sequence of presynaptic naturally-expressed α4β2-containing nicotinic receptors (P12390 25-500): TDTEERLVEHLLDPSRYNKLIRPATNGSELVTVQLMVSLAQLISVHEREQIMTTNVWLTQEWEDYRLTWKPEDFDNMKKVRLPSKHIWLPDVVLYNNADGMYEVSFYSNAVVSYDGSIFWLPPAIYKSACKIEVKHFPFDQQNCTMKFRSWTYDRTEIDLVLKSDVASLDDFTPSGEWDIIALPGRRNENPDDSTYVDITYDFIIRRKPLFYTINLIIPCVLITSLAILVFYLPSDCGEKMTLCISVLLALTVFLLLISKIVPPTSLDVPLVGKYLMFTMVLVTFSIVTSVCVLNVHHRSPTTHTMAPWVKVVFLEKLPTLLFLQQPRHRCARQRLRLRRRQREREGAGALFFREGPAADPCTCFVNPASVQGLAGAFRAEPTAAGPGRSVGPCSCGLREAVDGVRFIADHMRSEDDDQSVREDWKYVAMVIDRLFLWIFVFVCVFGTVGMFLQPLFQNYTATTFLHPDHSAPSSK

[5] = target: α7 NNRs (Rattus norvegicus, UniProt Q05941); experiment: Epibatidine-evoked [3H]-norepinephrine release from rat hippocampal slices; type: cell-based
Sequence of α7 NNRs (Q05941 23-502): as the sequence (Q05941 23-502) above

[6] = Maximum plasma concentrations achieved in clinical studies; type: in vivo, human; settings: calculated from reported ng/mL and molecular weight
[7] = clinical studies, human plasma, cited from earlier work
[8] = target: α4β2 nicotinic receptors stably transfected in SH-EP1 cells (Homo sapiens, UniProt P17787+P43681); experiment: 86Rb+ efflux in α4β2/SH-EP1 cells; type: cell-based; settings: for extent of inhibition of nicotine-evoked 86Rb+ efflux: 10 μM nicotine; for extent of inhibition of TC-1827-evoked 86Rb+ efflux: 100 μM TC-1827; for effect on basal 86Rb+ efflux: compound alone, no agonist (data not shown)
Sequence of α4β2 nicotinic receptors stably transfected in SH-EP1 cells (P43681 29-627 limits assumed): as the sequence (P43681 29-627 limits assumed) above
Sequence of α4β2 nicotinic receptors stably transfected in SH-EP1 cells (P17787 26-502): as the sequence (P17787 26-502) above

Sequence of rat α7 NNRs (Q05941 23-502): as the sequence (Q05941 23-502) above

Compound: CN(C)CCCN1c2ccccc2Sc2ccc(Cl)cc21 [Chlorpromazine, chlorpromazine]
- IC50 [1]: 9.1 µM
- pseudo-Hill slope (nH) [1]: −0.84
- inhibition of [3H]-nicotine binding [2]: None of the compounds tested inhibited binding
- inhibition of [3H]-methyllycaconitine binding [3]: None of the compounds tested inhibited binding
- IC50 [4]: 2.8 µM
- IC50 [5]: 1.7 µM
- Max. Plasma Levels ([6]; ref Chetty and Miller, 2001): 2.4 µM
- Max. Plasma Levels ([6]; ref Chetty et al., 1996): 1.2 µM
- Max. Plasma Levels ([7]; ref Chetty and Miller, 2001): 839 ng/mL
- Max. Plasma Levels ([7]; ref Chetty et al., 1996): 422 ng/mL
- Max. Plasma Levels ([7]; ref Della Corte et al., 1993): 124 ng/mL

Compound: CN1CCN(C2=Nc3cc(Cl)ccc3Nc3ccccc32)CC1 [Clozapine, clozapine]
- inhibition of [3H]-nicotine binding [2]: None of the compounds tested inhibited binding
- Max. Plasma Levels ([6]; ref Diaz et al., 2005): 1.8 µM
- Max. Plasma Levels ([6]; ref Dumortier et al., 1998): 4.0 µM
- Max. Plasma Levels ([6]; ref Perry et al., 1991): 3.3 µM
- Max. Plasma Levels ([6]; ref Wong et al., 2006): 5.9 µM
- Max. Plasma Levels ([7]; ref Diaz et al., 2005): 574 ng/mL
- Max. Plasma Levels ([7]; ref Dumortier et al., 1998): 1310 ng/mL
- Max. Plasma Levels ([7]; ref Freudenreich et al., 1996): 880 ng/mL
- Max. Plasma Levels ([7]; ref Perry et al., 1991): 1088 ng/mL
- Max. Plasma Levels ([7]; ref Wong et al., 2006): 1920 ng/mL
- extent of inhibition of nicotine-evoked 86Rb+ efflux [8]: completely inhibited
- extent of inhibition of TC-1827-evoked 86Rb+ efflux [8]: fully inhibited
- effect on basal 86Rb+ efflux [8]: None of these compounds affected the basal

Compound: O=C(CCCN1CCC(O)(c2ccc(Cl)cc2)CC1)c1ccc(F)cc1 [Haloperidol, haloperidol]
- inhibition of [3H]-nicotine binding [2]: None of the compounds tested inhibited binding
- Max. Plasma Levels ([6]; ref Roh et al., 2001): 0.23 µM
- Max. Plasma Levels ([7]; ref Roh et al., 2001): 86 ng/mL
- extent of inhibition of nicotine-evoked 86Rb+ efflux [8]: completely inhibited
- effect on basal 86Rb+ efflux [8]: None of these compounds affected the basal

Compound: Clc1ccc2c(c1)N=C(N1CCNCC1)c1ccccc1N2 [N-desmethylclozapine]
- IC50 [1]: 3.2 µM
- activity at 6 µM ([1]; read-out: maximal ACh net charge response in the presence of inhibitor): 37.5 ± 5%
- pseudo-Hill slope (nH) [1]: −1.3
- inhibition of [3H]-nicotine binding [2]: None of the compounds tested inhibited binding
- inhibition of [3H]-methyllycaconitine binding [3]: None of the compounds tested inhibited binding
- IC50 [4]: 2.1 µM
- IC50 [5]: 2.2 µM
- Max. Plasma Levels ([6]; ref Dumortier et al., 1998): 1.9 µM
- Max. Plasma Levels ([6]; ref Flanagan et al., 2003): 1.3 µM
- Max. Plasma Levels ([6]; ref Wong et al., 2006): 2.3 µM
- Max. Plasma Levels ([7]; ref Dumortier et al., 1998): 580 ng/mL
- Max. Plasma Levels ([7]; ref Flanagan et al., 2003): 420 ng/mL
- Max. Plasma Levels ([7]; ref Wong et al., 2006): 720 ng/mL
- IC50 [8]: 2.1 µM
- extent of inhibition of nicotine-evoked 86Rb+ efflux [8]: completely inhibited
- extent of inhibition of TC-1827-evoked 86Rb+ efflux [8]: fully inhibited
- effect on basal 86Rb+ efflux [8]: None of these compounds affected the basal

Compound: OCCOCCN1CCN(C2=Nc3ccccc3Sc3ccccc32)CC1 [Quetiapine, quetiapine]
- Max. Plasma Levels ([6]; ref Aichhorn et al., 2006): 1.3 µM
- Max. Plasma Levels ([6]; ref Grimm et al., 2006): 2.7 µM
- Max. Plasma Levels ([6]; ref Lin et al., 2004): 0.24 µM
- Max. Plasma Levels ([7]; ref Aichhorn et al., 2006): 491 ng/mL
- Max. Plasma Levels ([7]; ref Grimm et al., 2006): 1042 ng/mL
- Max. Plasma Levels ([7]; ref Lin et al., 2004): 91 ng/mL
- Max. Plasma Levels ([7]; ref Tauscher-Wisniewski et al., 2002): 1454 ng/mL
